Data set [1] relates to MiaPaCa-2 cells. As to the kind of experiment: Cytotoxicity assay in MiaPaCa-2 (XTT, 72 h). Type of data set: cell-based. Particulars: for Cell cytotoxicity assay (% Inhibition at 1 μM) / inhibition at 10 µM / Cell cytotoxicity assay (% Inhibition at 10 μM): DMSO control = 0% inhibition; for inhibition at 10 µM: Homo sapiens, MIA PaCa-2, 72 h, read-out: Cell cytotoxicity assay (% Inhibition at 10 μM); for IC50: XTT, read-out: Cell cytotoxicity assay IC50 in range. Here is the method:
MiaPaCa-2 Cells (ATCC) were seeded in 96 well plates (Costar clear flat bottom) at a density of 3000 cells/well and allowed to settle overnight. Test compounds were dissolved in dimethyl sulphoxide (DMSO-Sigma Aldrich, D2650) and incubated with MiaPaCa-2 cells for 72 h. Post 72 h, 50 μl XTT (1 mg/mL; Invitrogen, X 6493) and PMS ([…]; Sigma Aldrich, P9625) reagents were added to the cells in 100 μl of cDMEM (Sigma Aldrich-D5648)+10% FBS (Hyclone-5430088-03)+1×Pen Strep (Sigma Aldrich-P0781). After 1 hour incubation with XTT and PMS absorbance was monitored with Spectramax M3 (Molecular Device). Percentage inhibition of proliferation at 10 μM and 1 μM concentrations was calculated by considering DMSO control as 0% inhibition. IC50 values were plotted using Graph pad prism software (Graph pad Inc, La Jola, Calif., USA).
On the technique in general: Tetrazolium assays rely on reduction of a dye to a coloured formazan, in cell work by metabolically active cells.

The target of data set [2] is T1, recombinant NAMPT wild type protein (Homo sapiens, UniProt P43490).
T1 construct: made in house; host or cells: E. coli
T1 sequence (P43490 whole entry): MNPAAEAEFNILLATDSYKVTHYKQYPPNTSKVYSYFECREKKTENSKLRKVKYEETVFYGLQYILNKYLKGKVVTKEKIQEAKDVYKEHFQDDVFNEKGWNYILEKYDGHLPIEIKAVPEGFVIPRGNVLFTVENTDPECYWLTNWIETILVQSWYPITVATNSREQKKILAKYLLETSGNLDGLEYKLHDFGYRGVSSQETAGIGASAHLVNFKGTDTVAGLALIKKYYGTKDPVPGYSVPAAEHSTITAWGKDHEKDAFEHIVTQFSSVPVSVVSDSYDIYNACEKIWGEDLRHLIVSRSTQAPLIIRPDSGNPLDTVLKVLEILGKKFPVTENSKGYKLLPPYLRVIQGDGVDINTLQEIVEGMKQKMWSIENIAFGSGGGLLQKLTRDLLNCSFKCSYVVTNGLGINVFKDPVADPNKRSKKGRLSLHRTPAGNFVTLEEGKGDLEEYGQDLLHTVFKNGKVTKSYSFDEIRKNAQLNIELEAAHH
Kind of data set: NAMPT fluorescence assay. Particulars: 50 ng NAMPT, 2 μM Nam, 10 point dose response; read-out: Fluorescence assay IC50 in range. It counts as biochemical. As for the experimental part:
The enzymatic assay was standardized using in-house recombinant NAMPT wild type protein from E. coli expression & NAM (Cat #47865-U) as a substrate. The product NMN formed after enzymatic reaction was derivatized to a fluorescent derivative through sequentially reacting with acetophenone/KOH and formic acid. The derivatized fluorescent NMN derivative was detected at 382 nm excitation wavelength and a 445 nm emission wavelength. […] The fluorescence was measured (Excitation at 382 nm & Emission at 445 nm) using Victor^3 V fluorimeter. The data is calculated using the RFU values. The final concentration of DMSO was 2% in the assay. Each individual IC50 was determined using 10 point dose response curve generated by GraphPad Prism software Version 4 (San Diego, Calif., USA) using nonlinear regression curve fit for sigmoidal dose response (variable slope).

Some results are limits rather than exact numbers.

Broadly, the inhibition is how much of the control response was suppressed. As usually defined, the IC50 is the concentration needed to halve the response being measured. `Cc1ccc(OCC2CC(CNC(=O)c3ccc4nccn4c3)=NO2)c(-c2ccc(F)nc2)n1` (single isomer, unassigned) [Example 12a, N-((5-(((6′-fluoro-6-methyl-[2,3′-bipyridin]-3-yl)oxy)methyl)-4,5-dihydroisoxazol-3-yl)methyl)imidazo[1,2-a]pyridine-6-carboxamide]: in data set [1], the “Cell cytotoxicity assay (% Inhibition at 1 μM)” value is reported as 45%, the inhibition at 10 µM came to 96% and the IC50 was greater than 250 nM. In addition, in data set [2], the IC50 is 10 to 25 nM.
In the case of `Cc1ccc(OCC2CC(CNC(=O)c3ccc4nccn4c3)=NO2)c(-c2ccc(F)nc2)n1` (single isomer, unassigned) [Example 12b, N-((5-(((6′-fluoro-6-methyl-[2,3′-bipyridin]-3-yl)oxy)methyl)-4,5-dihydroisoxazol-3-yl)methyl)imidazo[1,2-a]pyridine-6-carboxamide], in data set [1], the “Cell cytotoxicity assay (% Inhibition at 1 μM)” value was 100%, the “Cell cytotoxicity assay (% Inhibition at 10 μM)” value is 100% and the IC50 is less than 50 nM. In addition, the concentration for half-maximal inhibition (IC50) in data set [2] fell in the range of 10 to 25 nM.
`O=C(NCC1=NOC(COc2cc(Cl)cnc2-c2cccnc2)C1)c1ccc2nccn2c1` (single isomer, unassigned) [Example 13a, N-((5-(((5-chloro-[2,3′-bipyridin]-3-yl)oxy)methyl)-4,5-dihydroisoxazol-3-yl)methyl)imidazo[1,2-a]pyridine-6-carboxamide]: in data set [1], the “Cell cytotoxicity assay (% Inhibition at 1 μM)” value was 20%, the inhibition at 10 µM was determined as 93% and the IC50 was greater than 250 nM. Further, the IC50 in data set [2] is greater than 25 nM.
As to `O=C(NCC1=NOC(COc2cc(Cl)cnc2-c2cccnc2)C1)c1ccc2nccn2c1` (single isomer, unassigned) [Example 13b, N-((5-(((5-chloro-[2,3′-bipyridin]-3-yl)oxy)methyl)-4,5-dihydroisoxazol-3-yl)methyl)imidazo[1,2-a]pyridine-6-carboxamide], in data set [1], the “Cell cytotoxicity assay (% Inhibition at 1 μM)” value turned out to be 100%, the “Cell cytotoxicity assay (% Inhibition at 10 μM)” value is reported as 100% and the IC50 was less than 50 nM. Also, in data set [2], the 50% inhibitory concentration (IC50) lay in the range of 10 to 25 nM.
